Bounds are passed on as bounds.

Data set [1] can be described thus: Cytotoxicity assay, Jurkat E6.1. The data set is classed as cell-based. To be noted: human, Jurkat E6.1 cells, viability dye, flow cytometry. As for the experimental part:
(§1) To evaluate in vitro cytotoxicity and support its potential application in inflammatory and fibrotic disease models, the following panel of cell lines, representing the relevant biological systems, was used: HEK293, HepG2, THP1, Jurkat E6.1, and LX2. HEK293, HepG2, and Jurkat E6.1 cells were seeded at 400,000 cells/mL, THP1 cells at 500,000 cells/mL, and LX2 cells at 200,000 cells/mL in 96-well plates (cell culture-treated, VWR) in 100 μL/well. Cells were treated with the tested compounds in a serial dilution (300, 100, 33.3, 11.1, and 3.7 μM) for 24 h. Untreated cells served as negative controls to establish the baseline viability threshold. Cell viability was assessed using a viability dye (Zombie Violet Fixable Viability Kit, BioLegend) following the manufacturer’s instructions and analyzed by flow cytometry (see below).
(§2) Cells or beads from screening assays prepared for flow cytometry were analyzed by the CytoFlex S instrument (Beckman Coulter). Data acquisition was performed using CytExpert software (v2.5, Beckman Coulter). Debris was excluded by forward and side scatter gating, followed by doublet exclusion. Data were analyzed using FlowJo software (v10, BD Biosciences).

The nature of data set [2]: Plasma stability assay, human plasma. The data set is classed as in vitro ADME. The settings on record: pooled plasma, 37 °C. As for the experimental part:
(§3) Test compounds (10 μM) were incubated with mouse, rat, or human pooled plasma from 50 donors (Biowest) at 37 °C for 20, 60, and 120 min. Reactions were terminated by adding four volumes of ice-cold methanol, followed by vigorous mixing. Samples were kept at −20 °C for 30 min and then stored at 4 °C overnight. The next day, samples were centrifuged, and supernatants were diluted with four volumes of 30% methanol in water. Zero time points were prepared by adding ice-cold methanol to the compound prior to the addition of plasma. Samples were then analyzed on an Echo MS system (SCIEX) using multiple reaction monitoring (MRM). The only exception was compound 3af, which was analyzed by LC–MS/MS (SCIEX 6500 triple quadrupole) due to its weak ionization in Echo-MS.

In data set [3] the target is T1, intracellular Gal-3 in THP1 cells (Homo sapiens, UniProt P17931).
T1 construct: Untreated cells served as negative and baseline controls representing maximum intracellular Gal-3 levels; endogenous in cells; host or cells: THP1 (monocyte-like or PMA-differentiated macrophage-like)
T1 sequence (P17931 whole entry): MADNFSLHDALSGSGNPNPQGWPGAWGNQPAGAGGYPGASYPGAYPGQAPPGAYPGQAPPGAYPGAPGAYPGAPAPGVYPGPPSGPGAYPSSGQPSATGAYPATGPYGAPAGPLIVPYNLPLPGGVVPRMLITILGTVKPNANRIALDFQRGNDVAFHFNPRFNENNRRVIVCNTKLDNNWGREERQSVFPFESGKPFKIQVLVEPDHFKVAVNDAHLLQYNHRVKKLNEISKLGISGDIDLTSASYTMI
Put plainly: Intracellular Gal-3 target engagement in THP1 cells (flow cytometry, MFI). The data set is classed as cell-based. The settings on record: 2 h. As for the experimental part: THP1 cells were used to assess the binding of the tested compounds to Gal-3. Cells were either maintained in suspension as undifferentiated monocyte-like cells or differentiated into macrophage-like cells by overnight treatment with phorbol 12-myristate 13-acetate (PMA, Sigma-Aldrich) at a final concentration of 10 ng/mL. […] Untreated cells served as negative and baseline controls representing maximum intracellular Gal-3 levels. Cells were then harvested and intracellularly stained either with galectin-3 monoclonal antibody eF660 (Invitrogen, Thermo Fisher Scientific) or a relevant isotype antibody (Invitrogen, Thermo Fisher Scientific) for flow cytometric analyses (see below). A dose-dependent decrease in Gal-3 signal upon compound treatment was used to assess intracellular target engagement expressed as median fluorescent intensity (MFI).
as §2
(In general: Flow cytometry measures light scatter and fluorescence of single cells or particles in a stream.)

Data set [4] can be described thus: Plasma stability assay, rat plasma. The data set is classed as in vitro ADME. To be noted: 37 °C. As for the experimental part:
as §3

Data set [5] in a line: Microsomal stability assay, mouse liver microsomes. The data set is classed as in vitro ADME. The settings on record: pooled liver microsomes, pH 7.4, mouse liver microsomes 0.5 mg/mL, NADPH. As for the experimental part: (§4) Microsomal stability was determined using 0.5 mg/mL of pooled human, mouse, or rat liver microsomes (Thermo Fisher Scientific) in 90 mM TRIS-Cl buffer (pH 7.4) containing 2 mM NADPH and 2 mM MgCl2. Test compounds (10 μM) were added, and the resulting mixture was incubated at 37 °C for 10, 60, 120, and 180 min. The reactions were terminated by the addition of four volumes of ice-cold methanol, followed by vigorous mixing. The samples were left at −20 °C for 30 min and then stored at 4 °C overnight. The next day, samples were centrifuged, and supernatants were diluted with four volumes of 30% methanol in water. Zero time points were prepared by adding ice-cold methanol to the mixture of compounds and cofactors prior to the addition of microsomes. The samples were then analyzed using the Echo-MS system (SCIEX) with MRM transition monitoring, except for compound 3af, which was analyzed by LC–MS/MS as described in the plasma stability assay.

A short description of data set [6]: Microsomal stability assay, human liver microsomes. The data set is classed as in vitro ADME. The settings on record: pooled liver microsomes, pH 7.4, human liver microsomes 0.5 mg/mL, NADPH. As for the experimental part:
as §4
Background: Liver microsomes are vesicles of endoplasmic reticulum, rich in cytochrome P450 enzymes.

The test system of data set [7] is LPS-stimulated macrophage-like THP1 cells (TNFα secretion). Put plainly: Anti-inflammatory potential: TNFα secretion in LPS-stimulated PMA-differentiated THP1 cells. The settings on record: (+)PMA THP1, 1 μg/mL LPS, 24 h, up to 300 μM. The data set is classed as cell-based, human. As for the experimental part:
Cells were differentiated overnight into macrophage-like phenotypes by treatment with 10 ng/mL PMA and subsequently stimulated with 1 μg/mL lipopolysaccharide (LPS; Invitrogen, Thermo Fisher Scientific) to induce a proinflammatory response. […] After 24 h of LPS and compound exposure, cell culture supernatants were collected and analyzed for TNFα levels using a bead-based multiplex immunoassay (ProcartaPlex Human Basic Kit and TNFα Human ProcartaPlex Simplex Kit, both Invitrogen, Thermo Fisher Scientific). Flow cytometry readout was used as previously described. TNFα concentrations were calculated using a standard curve generated in GraphPad Prism 10 (GraphPad Software, San Diego, CA). Cells or beads from screening assays prepared for flow cytometry were analyzed by the CytoFlex S instrument (Beckman Coulter). Data acquisition was performed using CytExpert software (v2.5, Beckman Coulter). Debris was excluded by forward and side scatter gating, followed by doublet exclusion. Data were analyzed using FlowJo software (v10, BD Biosciences).

The nature of a further data set: Cytotoxicity assay, THP1. The data set is classed as cell-based. The settings on record: human, THP1 cells, viability dye, flow cytometry. As for the experimental part:
as §1, §2

Data set [8] can be described thus: Plasma protein binding assay (rapid equilibrium dialysis), rat plasma. The data set is classed as in vitro ADME. To be noted: fraction bound, read-out: plasma protein binding Fb rat (converted). As for the experimental part: Test compound (10 μM) was incubated at 37 °C for 4 h with mouse, rat, or human plasma (Biowest) in the donor well of a rapid equilibrium dialysis plate (Thermo Fisher Scientific). PBS was placed in the acceptor well. To stop the assay, samples were collected from both wells, and an equal volume of plasma was added to the PBS sample, and vice versa. Proteins were then precipitated by adding three volumes of ice-cold methanol. Samples were mixed gently, kept at −20 °C for 30 min, and then stored at 4 °C overnight. The next day, the samples were centrifuged, and the supernatants were diluted with four volumes of 30% methanol in water. The samples were then analyzed using the Echo-MS system (SCIEX) with MRM transition monitoring, except for compound 3af, which was analyzed by LC–MS/MS as described in the plasma stability assay.
(In equilibrium dialysis only unbound substance equilibrates across the membrane.)

A short description of data set [9]: Cytotoxicity assay, panel of five human cell lines. The data set is classed as cell-based. To be noted: HEK293, HepG2, THP-1, Jurkat E6.1 and LX2 cells; summary in text across panel of five human cell lines. As for the experimental part:
as §1, §2

Consider `CC(=O)N(c1cc(C(=O)O)cc2[nH]ccc12)[C@@H]1O[C@H](CO)[C@@H](S[C@@H]2O[C@H](CO)[C@H](O)[C@H](n3cc(-c4cccc(F)c4)nn3)[C@H]2O)[C@H](O)[C@H]1O` [Compound 11, N-[4-S-(3-Deoxy-3-(4-(3-fluorophenyl)-1H-1,2,3-triazol-1-yl)-β-D-galactopyranosyl)-4-thio-β-D-glucopyranosyl]-N-(6-carboxy-1H-indol-4-yl)acetamide], for which the CC50 at 24 h in data set [1] was more than 300 µM; in “Cytotoxicity assay, THP1”, more than 300 µM; in [9], more than 300 µM. Moreover, the share remaining at 2 h, 10 μM in data set [2] was 110 ± 6%; in data set [4], 87 ± 6%. Moreover, in data set [3] ((+)PMA differentiated THP1, 3.7–300 μM), the “intracellular Gal-3 signal (MFI), macrophage-like THP1 cells” value is “concentration-dependent reduction”. Also, the “intracellular Gal-3 signal (MFI), monocyte-like THP1 cells” value in data set [3] ((−)PMA undifferentiated THP1, 3.7–300 μM) is listed as “concentration-dependent reduction”. Further, the intrinsic metabolic clearance (microsomal CLint) at 10 μM in [5] and in data set [6] was less than 2 µL/min/mg in each case. In addition, the “LPS-induced TNFα secretion” value in data set [7] is listed as “no suppression”. Further, the fraction unbound at 4 h, 10 μM in [8] was 0.1.

The term CC50 denotes the concentration that lowers cell viability or growth by half. By microsomal CLint is commonly meant a measure of how fast metabolising enzymes remove a compound, apart from limits set by blood flow. Higher therefore signals faster metabolism.

For the origin of these results see publication PMC12670426 (Journal of Medicinal Chemistry, 2025).
